Here are results for nine molecules from publication PMC9502993 (Pharmaceuticals, 2022).

Read-outs that look alike come from different tables or passages of the source.

Data set [1] deals with HEK293T cells. The data set can be described thus: cAMP assay (GloSensor luciferase), GPCR off-target. The conditions noted are these: 5 µM forskolin, positive control.
Data set [2] deals with HEK293T cells. In words: Ca2+-release assay (Fluo-8-AM), GPCR off-target. In kind it is cell-based. The conditions noted are these: 10 µM ionomycin, positive control. The method, then:
Next, 50,000 HEK293T cells were seeded in a 96-well poly-D-lysine-coated plate and incubated at 37 °C for 24 h. Cells were incubated with 4 µM Fluo-8-AM in HBSS for 1 h at 37 °C. After 1 h, the Fluo-8/HBSS was replaced by 100 µL HBSS. Five images per second were taken using an ImageXpress Micro Confocal High Content Imaging System (Molecular Device, San Jose, CA, USA). […] An image was taken every second for the next 20 s. The MetaXpress Software Version 6.7.1.157 (San Jose, CA, USA) was used to analyze the data. A threshold of fluorescence intensity was defined using cells before treatment and all cells with a fluorescence signal above the threshold level were counted and related to all cells.

Data set [3] has as its system HEK293T cells. In words: IP3 assay, GPCR off-target. In kind it is cell-based. To be noted: 10 µM ionomycin, positive control.
Data set [4] deals with HepG2 cells. In words: In Vitro Micronuclei Plus assay (flow cytometry). (In flow cytometry, cells or beads pass a laser one at a time.)
In data set [5] the test system is MDA-MB-231 cell line. Also noted: method as in PMID 32470302. To be noted: MDA-MB-231, 100 nM ref 39; cited from earlier work.
The subject of data set [6] is Calu-3 cells. The conditions noted are these: human, 25 µM.
Data set [7] can be described thus: Stability assay in human liver microsomes. In kind it is in vitro ADME. To be noted: pH 7.4, human liver microsomes 0.5 mg/mL, 10 µM. As for the experimental part: The reaction was started with 1 mM NADPH diluted in potassium phosphate buffer. As control, samples without NAPDH were used. After various time points (0 h, 1 h, 2 h, 4 h), the reaction was stopped by adding ice-cold acetonitrile. The samples were centrifuged (5 min, 4 °C, 10,000× g) and supernatant was stored at −80 °C until the remaining drug concentration was determined by LC-MS/MS as described in detail below. The concentrations of the drugs were plotted against time and the elimination constant (k) was calculated from the slope (m):m = −k
Equation to determine half-life:T1/2 = 0.693/K
Equation to determine intrinsic clearance:Cl = Ln(2) × 1000/T1/2/protein concentration

In data set [8] the target is T1, P-glycoprotein (Homo sapiens, UniProt P08183).
T1 construct: endogenous in cells; host or cells: Caco-2 (high P-gp), Calu-3 (low P-gp)
T1 sequence (P08183 whole entry): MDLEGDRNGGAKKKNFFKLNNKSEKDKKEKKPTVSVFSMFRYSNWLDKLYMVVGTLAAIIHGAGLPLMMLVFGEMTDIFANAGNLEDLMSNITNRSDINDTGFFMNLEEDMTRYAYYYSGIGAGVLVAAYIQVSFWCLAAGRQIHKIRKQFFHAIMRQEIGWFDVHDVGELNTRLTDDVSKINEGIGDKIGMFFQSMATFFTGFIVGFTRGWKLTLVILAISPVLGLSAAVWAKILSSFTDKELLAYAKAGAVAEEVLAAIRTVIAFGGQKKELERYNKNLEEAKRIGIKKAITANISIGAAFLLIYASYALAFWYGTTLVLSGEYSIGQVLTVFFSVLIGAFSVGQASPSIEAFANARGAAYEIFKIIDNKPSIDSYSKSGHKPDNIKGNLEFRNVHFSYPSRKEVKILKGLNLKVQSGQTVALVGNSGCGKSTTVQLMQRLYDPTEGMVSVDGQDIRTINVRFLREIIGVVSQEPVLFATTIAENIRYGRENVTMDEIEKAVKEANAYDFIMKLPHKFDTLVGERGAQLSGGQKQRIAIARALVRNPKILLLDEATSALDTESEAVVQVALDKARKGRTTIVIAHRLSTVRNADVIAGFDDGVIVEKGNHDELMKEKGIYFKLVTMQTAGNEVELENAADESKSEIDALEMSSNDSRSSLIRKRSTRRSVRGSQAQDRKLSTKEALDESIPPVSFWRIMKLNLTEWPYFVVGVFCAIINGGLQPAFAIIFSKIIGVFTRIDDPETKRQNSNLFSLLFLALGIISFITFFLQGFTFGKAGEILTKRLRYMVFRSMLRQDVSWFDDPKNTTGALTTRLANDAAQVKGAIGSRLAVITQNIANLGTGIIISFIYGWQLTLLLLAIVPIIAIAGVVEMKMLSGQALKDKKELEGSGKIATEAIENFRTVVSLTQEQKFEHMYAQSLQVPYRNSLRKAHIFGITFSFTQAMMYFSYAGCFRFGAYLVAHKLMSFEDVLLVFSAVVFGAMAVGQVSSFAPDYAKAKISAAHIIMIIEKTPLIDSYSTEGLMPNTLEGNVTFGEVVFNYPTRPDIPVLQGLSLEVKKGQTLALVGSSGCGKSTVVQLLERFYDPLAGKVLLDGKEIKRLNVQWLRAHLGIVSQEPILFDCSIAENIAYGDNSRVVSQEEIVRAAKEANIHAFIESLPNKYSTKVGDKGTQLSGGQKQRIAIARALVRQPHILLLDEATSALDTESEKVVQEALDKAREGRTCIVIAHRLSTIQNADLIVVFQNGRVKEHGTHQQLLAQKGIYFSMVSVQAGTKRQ
To be noted: cited from earlier work.

Data set [9] deals with Caco-2 cells. To be noted: human, 25 µM.
Data set [10] relates to primary immune cells. The conditions noted are these: primary immune cells ref 9; cited from earlier work.
For data set [11], the system named is Caco-2 cell barrier. The conditions noted are these: human, 200 µM.
The subject of data set [12] is Calu-3 cell barrier. The conditions noted are these: human, 24 h, 200 µM.
Data set [13] relates to Caco-2 cell barrier. In words: Cell barrier integrity (TEER, cellZscope2). The data set is classed as cell-based. The conditions noted are these: 10 mM, positive control.

`C=C[C@@]1(C)CC(=O)[C@]2(O)[C@@]3(C)[C@@H](O)CCC(C)(C)[C@@H]3[C@H](O)[C@H](OC(C)=O)[C@@]2(C)O1` [forskolin, reference compound]: the “induction of cAMP formation” value in [1] is on record as “induced significant increases”.

As for `C[C@H](CCC(=O)O)C[C@H](C)C[C@H](C)C(=O)/C=C(\O)[C@H](C)C[C@H](C)C/C=C/[C@@H](C)[C@@H](O)[C@@H](C)[C@@H](O)C[C@@H]1CC[C@@](C)([C@H]2CC[C@@](C)([C@@H](C)O)O2)O1` [ionomycin, reference compound], the “induction of Ca2+-release” value in data set [2] is on record as “induced significant increases”. Further, the “induction of IP3 synthesis” value in [3] is reported as “induced significant increases”.

Consider `COc1cc2c(c(OC)n1)[C@]1(O)[C@H](O)[C@H](CN(C)C)[C@@H](c3ccccc3)[C@]1(c1ccc(C#N)cc1)O2` [zotatifin, reference compound], for which, in data set [4] (10 nM only, not concentration dependent), the “clastogenic effects (micronuclei)” value is “some clastogenic and aneugenic effects”. For the same molecule, in [5], the “effect on cell cycle and apoptosis” value was “induces a G2 cell cycle block and apoptosis”.

`CC(C)Cc1ccc(C(C)C(=O)O)cc1` (stereo not drawn) [ibuprofen, reference compound]: the “genotoxicity by the criteria of OECD guideline 487” value in data set [4] (positive and negative control) was “no effects”.

On to `Cc1ccc(-c2cc(C(F)(F)F)nn2-c2ccc(S(N)(=O)=O)cc2)cc1` [celecoxib, reference compound], for which the uptake rate result in data set [6] and in data set [9] was “about 2.5 ng/µg protein” in each case. Also, the half-life (in general, how long it takes for the measured level to halve) at 10 µM in data set [7] was 2.3 ± 0.5 h. Moreover, the microsomal CLint at 10 µM in data set [7] (read-out: intrinsic clearance) was 10.5 ± 2 µL/min/mg. Also, in [8], the “substrate of P-glycoprotein” value was “not a substrate of P-glycoprotein”.

For `CONC(=O)[C@H]1[C@@H](O)[C@@]2(O)c3c(OC)cc(OC)cc3O[C@@]2(c2ccc(OC)cc2)[C@@H]1c1ccccc1` [CR31B (-)], the “cytotoxicity compared with silvestrol” value in [10] is “comparable cytotoxic effects to those of silvestrol”.

On to `NC(=O)N1c2ccccc2C=Cc2ccccc21` [carbamazepine], for which the values for the transport rate result in data set [11] (4 h) and in data set [12] were “approx. 45%” and 74%, respectively.

For `NC(N)=Nc1nc(CSCCC(N)=NS(N)(=O)=O)cs1` [famotidine], the transport rate in data set [11] (4 h) worked out at 0.7%; in data set [11] (24 h), 1.3%; in [12], 8.3%.

For the molecule `O=C(O)CN(CCOCCOCCN(CC(=O)O)CC(=O)O)CC(=O)O` [EGTA, reference compound], in [13], the “effect on TEER readings (cell barrier integrity)” value is recorded as “caused a drop in TEER readings”.
